Measured values published in patent US20050261365A1, “Transthyretin stabilization” (The Scripps Research Institute, priority 2004, published 2005).
Values joined by “and” are separate entries in the source; they are usually repeats but may differ in a detail not shown here. Identical values can stand only once.

Key:
[1] = target: T1, TTR in human blood plasma (Homo sapiens, UniProt P02766); test: plasma TTR binding selectivity, antibody capture method; details: inhibitor 10.8 μM, 24 h, 37° C.
T1 construct: from tissue; host or cells: human blood plasma
Protocol: Inhibitor binding selectivity to TTR in human blood plasma was assessed using a previously established antibody capture method (Purkey, H. E.; et al. Proc. Natl. Acad. Sci. USA 2001, 98, 5566-5571). In this evaluation, inhibitors (10.8 μM, ˜2-3× the natural concentration of TTR) are incubated in human blood plasma for 24 h at 37° C. Quenched sepharose resin is then added to the plasma to remove any small molecules that would bind to the resin as opposed to TTR. TTR and any TTR-bound small molecule is then immunocaptured using a polyclonal TTR antibody covalently attached to sepharose resin. After washing the resin (5×10 min washes), the antibody-TTR complex is dissociated at high pH and analyzed by RP-HPLC. The relative stoichiometry between TTR and inhibitor is then calculated from their HPLC peak areas using standard curves.
The procedures used for bacterial expression of TTR (Lai, Z.; et al. Biochemistry 1996, 35, 6470-6482), the stagnant fibril formation assay (Colon, W.; Kelly, J. W. Biochemistry 1992, 31, 8654-8660; Lai, Z.; et al. Biochemistry 1996, 35, 6470-6482), the blood plasma binding selectivity assay (Purkey, H. E.; et al. Proc. Natl. Acad. Sci. USA 2001, 98, 5566-5571), and analytical ultracentrifugation (Lashuel, H. A.; et al. Biochemistry 1998, 37, 17851-17864) have all been described in detail previously.

WT-TTR [2] = target: T2, WT-TTR (Homo sapiens, UniProt P02766); details: inhibitor 7.2 μM, WT-TTR 3.6 μM, pH 4.4, 72 h; cited from earlier work
T2 construct: made in house

WT-TTR [3] = target: T2, WT-TTR; test: time course analysis of WT-TTR fibril formation inhibition; type: biochemical
Protocol: Time course analysis of WT-TTR fibril formation inhibition by compounds 25, 47, and 64. Compounds 25, 47, and 64 were dissolved in DMSO to provide 7.2 mM primary stock solutions (10× stocks), from which 5- and 10-fold DMSO dilutions yielded 1.44 mM (2×) and 0.72 mM (1×) secondary stock solutions, respectively. 495 μL of 0.4 mg/mL (7.2 μM) WT-TTR solution (10 mM sodium phosphate, 100 mM KCl, and 1 mM EDTA, pH 7.2), and 5 μL of either the 1.44 or 0.72 mM inhibitor secondary stock solutions were added to disposable UV cuvettes, vortexed briefly, then incubated for 30 min at 25° C. The pH was then adjusted to 4.4 with addition of 500 μL of acidic buffer (100 mM acetate, 100 mM KCl, 1 mM EDTA, pH 4.2), and the final 1 mL solutions were vortexed again and incubated in the dark at 37° C. without agitation. At 0, 4, 8, 12, 25, 49, 74, 100, 122, 145, and 169 h time points after acidification, the solutions were vortexed and the turbidity at 500 nm was measured. Control samples containing 5 μL of pure DMSO were prepared and analyzed as above for comparison. Small molecule and TTR control samples were prepared in groups of 10 to prevent disturbance of the cuvettes during incubation. Samples were discarded after their turbidities were measured.
FIG. 10 is a plot of the timecourse analysis of WT-TTR (3.6 μM) fibril formation mediated by partial acid denaturation in the absence (▴) and presence of 7.2 μM (⋄) and 3.6 μM (◯) inhibitors 25, 47, and 64, as measured by turbidity at 500 nm (see color scheme within Figure to differentiate inhibitors). It is hard to discern which compound is most efficacious in the black and white plot.

WT-TTR tetramer = target: T3, WT-TTR tetramer (Homo sapiens, UniProt P02766); test: time course analysis of WT-TTR tetramer dissociation by linked monomer unfolding in urea; type: biochemical; details: inhibitor 7.2 and 3.6 μM, TTR 3.6 μM, far-UV CD
T3 construct: made in house
From the text: The ability of these inhibitors to impose kinetic stability on tetrameric TTR is best evaluated by assessing the rate of TTR tetramer dissociation (Hammarstrom, P.; et al. Science 2003, 299, 713-716; Hammarstrom, P.; et al. Proc. Natl. Acad. Sci. USA 2002, 99, 16427-16432). Under acidic conditions tetramer dissociation leads to amyloidogenesis, whereas in the presence of chaotropes (6M urea), tetramer dissociation leads to monomer unfolding. The influence of inhibitors 25, 47 and 64, representing the three structural classes of dibenzofuran-based inhibitors, on the rates of tetramer dissociation under acid- and urea-mediated denaturing conditions was probed. […] The rate of TTR tetramer dissociation in 6M urea is easily monitored by linking the slow quaternary structural changes to rapid tertiary structural changes that are easily monitored by spectroscopic methods (Hammarstrom, P.; et al. Proc. Natl. Acad. Sci. USA 2002, 99, 16427-16432).
Time course analysis of WT-TTR tetramer dissociation inhibition by compounds 25, 47, and 64 evaluated by linked-monomer unfolding in urea. Compounds 25, 47, and 64 were dissolved in DMSO to provide 10 mM primary stock solutions, from which 10-fold EtOH dilutions yielded 1 mM secondary stock solutions. 200 μL of 1.0 mg/mL (18 μM) WT-TTR solution (50 mM sodium phosphate, 100 mM KCl, and 1 mM EDTA, pH 7.2), and either 7.2 or 3.6 μL (2× and 1×, respectively) of 1 mM inhibitor secondary stock solutions were added to 2 mL eppendorf tubes, vortexed briefly, and incubated for 15 min at 25° C. 100 μL of the TTR•inhibitor solutions were added to 900 μL of urea buffer (6.67 M urea, 50 mM sodium phosphate, 100 mM KCl, 1 mM EDTA, pH 7.2), and the final 1 mL solutions were vortexed again and incubated in the dark at 25° C. without agitation. At 0, 4, 11, 24, 49, 73, 97, 122, 146, and 170 h time points after mixing with urea, the circular dichroism spectra were measured between […], with scanning every 0.5 nm and averaging for 5 s. […] Control samples containing 7.2 μL of 10% DMSO in EtOH were prepared and analyzed as above for comparison. […] TTR tetramer dissociation is linked to the rapid (˜500,000× faster) monomer denaturation as measured through this β-sheet loss (Hammarstrom, P.; et al. Proc. Natl. Acad. Sci. USA 2002, 99, 16427-16432).
FIG. 11 is a plot of the timecourse analysis of WT-TTR (3.6 μM) tetramer dissociation (6.0 M urea) in the absence (▴) and presence of 7.2 μM (⋄) and 3.6 μM (◯) concentrations of inhibitors 25, 47, and 64 (see color scheme within Figure to differentiate inhibitors). Slow tetramer dissociation is not detectable by far-UV CD spectroscopy, but this process is linked to rapid (˜500,000× faster) monomer denaturation as monitored by loss of β-sheet content easily followed by circular dichroism spectroscopy. […]

[4] = precipitation of small molecules under acid-mediated amyloidogenic conditions in the absence of TTR; type: physicochemical; details: 3.6 μM, pH 4.4, 37° C., 72 h
Protocol: TTR amyloid inhibition efficacy was probed using a stagnant fibril formation assay described previously, wherein partial denaturation was triggered by acidification (pH 4.4, 37° C.) (Colon, W.; Kelly, J. W. Biochemistry 1992, 31, 8654-8660). Briefly, a test compound (7.2 or 3.6 μM) is incubated with TTR (3.6 μM) for 30 min in pH 7 buffer. Amyloidogenesis is then initiated by lowering to pH 4.4, where maximal fibril formation is observed with WT-TTR after 72 h (37° C.). […] From experience we know that excellent inhibitors allow <10% fibril formation at a small molecule concentration of 7.2 μM and <40% fibril formation at a concentration equal to that of WT-TTR (3.6 μM) (Hammarstrom, P.; et al. Science 2003, 299, 713-716; Klabunde, T.; et al. Nature Struct. Biol. 2000, 7, 312-321; Razavi, H.; et al. Angew Chem 2003, 42, 2758-2761; Miroy, G. J.; et al. Proc. Natl. Acad. Sci. USA 1996, 93, 15051-15056; Peterson, S. A.; et al. Proc. Natl. Acad. Sci. USA 1998, 95, 12956-12960; Baures, P. W.; et al. Bioorg. Med. Chem. 1998, 6, 1389-1401; Baures, P. W.; et al. Bioorg. Med. Chem. 1999, 7, 1339-1347; Petrassi, H. M.; et al. J. Am. Chem. Soc. 2000, 122, 2178-2192; McCammon, M. G.; et al. Structure 2002, 10, 851-863; Oza, V. B.; et al. J. Med. Chem. 2002, 45, 321-332; Saccheftini, J. C.; et al. Nature Rev. Drug Disc. 2002, 1, 267-275; Green, N. S.; et al. J. Am. Chem. Soc. 2003, 125, 13404-13414; Adamski-Werner, S. L.; et al. J. Med. Chem. 2004, 47, 355-374; Miller Sean, R.; et al. Lab. Inv. 2004, 84, 545-552). […] Therefore, when both the ligand and TTR are at equal concentrations, a population of TTR•I, TTR•I2 and unliganded TTR is observed, dictated by the dissociation constants. It is now established by other studies that inhibitor occupancy of only one of the two TTR binding sites is sufficient to stabilize the entire tetramer against amyloidogenesis (Wiseman, R. L.; et al. J. Am. Chem. Soc. 2005, in press). This is further supported by the observation herein that twenty-six of these dibenzofurans are excellent TTR amyloidogenesis inhibitors (<40% fibril formation) at a concentration equal to that of TTR (3.6 μM each, FIG. 3).

TTR = target: T4, TTR (Homo sapiens, UniProt P02766); test: analytical ultracentrifugation of TTR quaternary structure under amyloidogenic conditions; details: 27 at 7.2 μM, TTR 3.6 μM, 72 h at pH 4.4, 37° C.; tetramer expected 55.0 kDa
T4 construct: made in house
Protocol: To ensure that these C1-arylated dibenzofurans inhibit TTR fibril formation by native state stabilization (i.e. tetramer stabilization), we studied the TTR quaternary structure by analytical ultracentrifugation after a preincubation period of 72 h under amyloidogenic conditions (pH 4.4, 37° C.). […] In the absence of 27, TTR aggregated into very high molecular weight oligomers that sedimented rapidly in the ultracentrifugation experiment (data not shown). […]
(§1) FIG. 8 is a plot of the absorbance at 280 nm versus distance from the center in the sedimentation velocity study on TTR ([…]) after being preincubated with 27 ([…]) and after another incubation period where the pH was dropped to 4.4 for 72 h, a time frame that results in maximal amyloid formation in the absence of inhibitor. […]
as §1, with “FIG. 9” for “FIG. 8”, “the equilibrium ultracentrifugation studies” for “the sedimentation velocity study”

For `O=C(O)c1cccc2c1oc1c(C(=O)O)cccc12` [Compound 1, dibenzofuran-4,6-dicarboxylic acid, reference compound], the “binding selectivity to TTR in human blood plasma” value [1] is listed as “no measurable binding selectivity” and the “decrease of the extent of WT-TTR amyloid formation” value (WT-TTR [2]) is listed as 90%.

For `O=C(O)c1cccc2c1oc1c(C(=O)O)ccc(Oc3cc(Cl)cc(Cl)c3)c12` [Compound 47], the “order of fibrils formed at the end of the time course” value (WT-TTR [3]; after 169 hours, FIG. 10) was “shows the most fibrils formed”, the “rate of TTR amyloidogenesis mediated by partial acidification relative to control” value (WT-TTR [3]; inhibitor 7.2 and 3.6 μM, WT-TTR 3.6 μM, pH 4.4, turbidity at 500 nm) was “dramatically slowed in a dose-dependent fashion” and the “rate of TTR tetramer dissociation in 6M urea” value (WT-TTR tetramer) was “markedly slowed in a dose-dependent fashion”. For the same molecule, the “precipitation in the absence of TTR” value [4] was “no measurable precipitation”.

In the case of `O=C(O)c1cccc2c1oc1c(C(=O)O)ccc(Nc3cccc(Cl)c3)c12` [Compound 27], the “hydrodynamic molecular weight of TTR by equilibrium analytical ultracentrifugation” value (TTR) is reported as 55.1±0.4 kDa and 55.0±0.2 kDa, the “hydrodynamic molecular weight of TTR by sedimentation velocity” value (TTR) is reported as 57.1±0.3 kDa and 57.1±0.2 kDa and the “precipitation in the absence of TTR” value [4] is reported as “no measurable precipitation”.
